The term Kd denotes the free concentration of one partner at which half of the binding sites on the other are occupied at equilibrium, for simple one-to-one binding. What is called IC50 is the concentration that gives 50% inhibition.

Molecules are shown by their SMILES. A value given as a limit tells only on which side of the number the result lay.

From patent publication US12162858B2, “Quinoline derivatives as inhibitors of AXL/MER RTK and CSF1R” (QURIENT CO., LTD., priority 2018, dated 2024) come the findings set out here.

The target in experiment [1] is T1, Axl (Homo sapiens, UniProt P30530).
T1 sequence (P30530 26-894): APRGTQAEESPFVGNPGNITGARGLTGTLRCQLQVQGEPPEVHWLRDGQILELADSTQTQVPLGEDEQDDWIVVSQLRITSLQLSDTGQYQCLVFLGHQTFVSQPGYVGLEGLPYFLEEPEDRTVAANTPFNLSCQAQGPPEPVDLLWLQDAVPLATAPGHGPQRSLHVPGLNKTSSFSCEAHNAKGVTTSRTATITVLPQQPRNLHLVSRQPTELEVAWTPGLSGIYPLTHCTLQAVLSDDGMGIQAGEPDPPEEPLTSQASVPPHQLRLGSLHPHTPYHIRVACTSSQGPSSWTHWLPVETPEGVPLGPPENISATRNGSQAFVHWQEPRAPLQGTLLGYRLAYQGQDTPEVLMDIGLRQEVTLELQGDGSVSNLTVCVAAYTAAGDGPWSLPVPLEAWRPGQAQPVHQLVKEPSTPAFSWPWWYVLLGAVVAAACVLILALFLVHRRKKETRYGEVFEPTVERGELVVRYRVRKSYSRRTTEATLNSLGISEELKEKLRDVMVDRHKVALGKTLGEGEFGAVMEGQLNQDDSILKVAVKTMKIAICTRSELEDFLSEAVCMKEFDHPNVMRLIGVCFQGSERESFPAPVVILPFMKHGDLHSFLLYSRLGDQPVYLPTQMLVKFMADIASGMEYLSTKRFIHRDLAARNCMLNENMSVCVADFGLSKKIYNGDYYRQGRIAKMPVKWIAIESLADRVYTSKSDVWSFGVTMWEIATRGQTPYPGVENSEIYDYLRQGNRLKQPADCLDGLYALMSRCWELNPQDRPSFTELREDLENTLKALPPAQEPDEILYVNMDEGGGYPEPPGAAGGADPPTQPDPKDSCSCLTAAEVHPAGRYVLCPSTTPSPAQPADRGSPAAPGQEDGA
Put plainly: LanthaScreen Eu kinase binding assay for Axl. The settings on record: read-out: Axl kinase binding activity (Kd). The method in brief:
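Competitive displacement of Alexa Fluor 647-labeled Tracer 236 from the kinase, with binding detected by TR-FRET with a Eu-labeled anti-GST antibody. Compounds were run as 8-step DMSO serial dilutions and incubated 1 h at room temperature. Kd was calculated relative to DMSO vehicle control wells.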

The subject of experiment [2] is CSF1R (M-NFS-60 cells). Put plainly: Cell Titer-Glo viability assay using M-NFS-60 cells. The class given is cell-based. The conditions noted are these: Mus musculus, read-out: Cellular CSF1R activity by M-NFS-60 viability assay (IC50 activity range). The method in brief: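 M-NFS-60 cells grown with 62 ng/ml recombinant human M-CSF, seeded at 2×10^5 cells/well and incubated at 37 °C/5% CO2. Compounds given as 3-fold serial dilutions (10 doses); viability read by CellTiter-Glo luminescence, sigmoidal dose-response fit.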
A general note: ATP-based viability assays read luminescence as a measure of living cells.

With `COc1cc2nccc(Oc3ccc(NC(=O)c4nn(C5CC5)cc4OCC(F)(F)F)nc3)c2cc1OC` [Compound 5], in experiment [1], the Kd is less than 100 nM. For the same molecule, in experiment [2], the IC50 is less than 1000 nM.

Take `COc1cc2nccc(Oc3ccc(NC(=O)c4nn(C5CCOC5)cc4OCC(F)(F)F)c(F)c3)c2cc1OC` (centres unmarked) [Compound 77]: the Kd in experiment [1] was less than 100 nM. Further, the IC50 in experiment [2] is 1000 to 10000 nM.

For `COc1cc2nccc(Oc3ccc(NC(=O)c4nn(C5CCNC5)cc4OCC(F)(F)F)cc3F)c2cc1OC` (centres unmarked) [Compound 78], in experiment [1], the Kd is less than 100 nM. Further, in experiment [2], the IC50 is 1000 to 10000 nM.

With `COc1cc2nccc(Oc3ccc(NC(=O)c4nn(CCN)cc4OCC(F)(F)F)cc3F)c2cc1OC` [Compound 79], in experiment [1], the Kd was less than 100 nM. For the same molecule, in experiment [2], the IC50 was in the range of 1000 to 10000 nM.

With `COc1cc2nccc(Oc3ccc(NC(=O)c4nn(CC(C)O)cc4OCC(F)(F)F)cc3F)c2cc1OC` (centres unmarked) [Compound 80], the Kd in experiment [1] is less than 100 nM. In addition, the IC50 in experiment [2] is 1000 to 10000 nM.

In the case of `COc1cc2nccc(Oc3ccc(NC(=O)c4nn(C5CCNC5)cc4OCC(F)(F)F)cc3C)c2cc1OC` (centres unmarked) [Compound 81], in experiment [1], the Kd is no less than 500 nM. For the same molecule, in experiment [2], the IC50 was 1000 to 10000 nM.

As for `COc1cc2nccc(Oc3ccc(NC(=O)c4nn(CCN)cc4OCC(F)(F)F)cc3C)c2cc1OC` [Compound 82], the Kd in experiment [1] was no less than 500 nM. The IC50 in experiment [2] was in the range of 1000 to 10000 nM.

As to `COc1cc2nccc(Oc3ccc(NC(=O)c4nn(CC(C)O)cc4OCC(F)(F)F)cc3C)c2cc1OC` (centres unmarked) [Compound 83], the equilibrium dissociation constant (Kd) in experiment [1] was less than 100 nM. Moreover, the IC50 in experiment [2] was in the range of 1000 to 10000 nM.

As for `COCCn1cc(OCC(F)(F)F)c(C(=O)Nc2ccc(Oc3ccnc4cc(OC)c(OC)cc34)c(C)c2)n1` [Compound 84], the dissociation constant (Kd) in experiment [1] was less than 100 nM. Also, the IC50 in experiment [2] was in the range of 1000 to 10000 nM.

Consider `COc1cc2nccc(Oc3ccc(NC(=O)c4nn(C5CCOC5)cc4OCC(F)(F)F)cc3C)c2cc1OC` (centres unmarked) [Compound 85], for which the Kd in experiment [1] is less than 100 nM. Moreover, the IC50 in experiment [2] lay within 1000 to 10000 nM.

`COc1cc2nccc(Oc3ccc(NC(=O)c4nn(C5CCNC5)cc4OCC(F)(F)F)cc3)c2cc1OC` (centres unmarked) [Compound 86]: the Kd in experiment [1] was 100 to 500 nM. Besides, the IC50 in experiment [2] lay in the range of 1000 to 10000 nM.

On to `COc1cc2nccc(Oc3ccc(NC(=O)c4nn(CC(C)C)cc4OCC(F)(F)F)cc3)c2cc1OC` [Compound 87], for which the dissociation constant Kd in experiment [1] is less than 100 nM. In experiment [2], the half-inhibitory concentration (IC50) lay in the range of 1000 to 10000 nM.

`COc1cc2nccc(Oc3ccc(NC(=O)c4nn(CCN)cc4OCC(F)(F)F)cc3)c2cc1OC` [Compound 88]: in experiment [1], the Kd lay within 100 to 500 nM. Moreover, the IC50 in experiment [2] lay within 1000 to 10000 nM.

In the case of `COc1cc2nccc(Oc3ccc(NC(=O)c4nn(CC(C)O)cc4OCC(F)(F)F)cc3)c2cc1OC` (centres unmarked) [Compound 89], the Kd in experiment [1] is less than 100 nM. For the same molecule, the IC50 in experiment [2] lay in the range of 1000 to 10000 nM.

`COc1cc2nccc(Oc3ccc(NC(=O)c4nn(C5CCOCC5)cc4OCC(F)(F)F)nc3)c2cc1OC` [Compound 90]: in experiment [1], the Kd was less than 100 nM. In experiment [2], the IC50 was less than 1000 nM.

Consider `COc1cc2nccc(Oc3ccc(NC(=O)c4nn(C5CCN(C)C5)cc4OCC(F)(F)F)nc3)c2cc1OC` (centres unmarked) [Compound 91], for which the equilibrium dissociation constant (Kd) in experiment [1] was less than 100 nM. In addition, in experiment [2], the IC50 was less than 1000 nM.

Regarding `COc1cc2nccc(Oc3ccc(NC(=O)c4nn(CCC5CCCC5)cc4OCC(F)(F)F)nc3)c2cc1OC` [Compound 93], the Kd in experiment [1] is less than 100 nM. The IC50 in experiment [2] was less than 1000 nM.

On to `COc1cc2nccc(Oc3ccc(NC(=O)c4nn(C5CCN(C)C5)cc4OCC(F)(F)F)c(F)c3)c2cc1OC` (centres unmarked) [Compound 94], for which the Kd in experiment [1] was less than 100 nM. Further, the half-maximal inhibitory concentration (IC50) in experiment [2] fell in the range of 1000 to 10000 nM.

As for `COc1cc2nccc(Oc3ccc(NC(=O)c4nn(CC5COC5)cc4OCC(F)(F)F)c(F)c3)c2cc1OC` [Compound 95], the Kd in experiment [1] was less than 100 nM. Besides, the IC50 in experiment [2] lay in the range of 1000 to 10000 nM.
